Measured values taken from patent US8211945B2, “Carba-sugar amine derivative and glycolipid metabolic disorder treating agent containing the same as active ingredient” (Seikagaku Corporation, priority 2001, dated 2012).
Changes are numbered by the printed parent chain.

Experiments:
Assay in all cases: Mutant β-galactosidase activity in model cells, 4 days culture
Type in all cases: cell-based
[1] = biological target: T1, human mutant β-galactosidase Y316C (Homo sapiens, UniProt P16278, Y316C)
T1 construct: expressed in transfected cells; host or cells: SV40-immortalized skin fibroblasts of a β-galactosidase-deficient knockout mouse
T1 sequence (P16278 29-677 Y316C): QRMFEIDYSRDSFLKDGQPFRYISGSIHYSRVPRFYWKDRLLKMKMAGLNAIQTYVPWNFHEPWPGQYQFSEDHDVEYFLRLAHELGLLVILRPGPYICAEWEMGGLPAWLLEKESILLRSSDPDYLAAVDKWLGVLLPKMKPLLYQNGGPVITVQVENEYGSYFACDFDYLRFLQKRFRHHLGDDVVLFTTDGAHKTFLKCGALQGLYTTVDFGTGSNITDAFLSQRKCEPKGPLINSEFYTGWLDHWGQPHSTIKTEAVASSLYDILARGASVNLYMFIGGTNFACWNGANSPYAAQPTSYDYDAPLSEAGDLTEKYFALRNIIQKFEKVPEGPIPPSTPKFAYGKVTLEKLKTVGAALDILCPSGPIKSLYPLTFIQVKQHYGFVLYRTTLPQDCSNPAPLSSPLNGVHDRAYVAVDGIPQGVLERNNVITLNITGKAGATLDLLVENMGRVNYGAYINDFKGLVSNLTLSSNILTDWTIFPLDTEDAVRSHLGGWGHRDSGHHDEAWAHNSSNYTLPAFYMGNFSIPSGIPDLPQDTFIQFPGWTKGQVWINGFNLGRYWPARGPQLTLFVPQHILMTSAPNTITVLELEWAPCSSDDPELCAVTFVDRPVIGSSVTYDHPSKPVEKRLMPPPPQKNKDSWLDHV
Excerpt: (§1) Cultured skin fibroblasts of a β-galactosidase-deficient knockout mouse was immortalized by introducing an SV40 viral gene, and enzyme genes integrated into pSV2neo and an expression vector were also introduced simultaneously, thereby establishing a model cell (Brain Dev., 23(5), 284-287, 2001). The genes used are human normal (GP8) and mutant β-galactosidase gene Y316C, G123R (infantile GM1-gangliosidosis), R201C (juvenile GM1-gangliosidosis), 151T, T82M, R201H, R263S, R457Q (adult GM1-gangliosidosis), W273L, Y83H, R482H and R482C (Morquio-B disease) (Hum. Genet., 93(2), 109-114, 1994).
(§2) As a control substance, 0.5 mM N-(n-butyl)-deoxygalactonojirimycin (NB-DGJ: The Journal of Biological Chemistry, 269, 27108-27114 (1994)) was used, and the substance 18 of the present invention was used in an amount of 0.2 μM.
(§3) Specifically, after culturing the model cell for 4 days using a cell culture medium (10% FCS DMEM) containing the substance 18 of the present invention, the resulting cells were recovered and diluted such that the amount of protein in the suspension became a predetermined level, and then enzyme activity in the diluted suspension was measured. Using 4-methylumbelliferyl-β-D-galactopyranoside as the fluorescent substrate, the enzyme activity during 30 minutes was measured at 37° C.

[2] = biological target: T2, human mutant β-galactosidase T82M (Homo sapiens, UniProt P16278, T82M)
T2 construct: expressed in transfected cells; host or cells: SV40-immortalized skin fibroblasts of a β-galactosidase-deficient knockout mouse
T2 sequence (P16278 29-677 T82M): T1 sequence (P16278 29-677 Y316C) with T54M, C288Y
Excerpt: as §1, §2, §3

[3] = biological target: T3, human mutant β-galactosidase Y83H (Homo sapiens, UniProt P16278, Y83H)
T3 construct: expressed in transfected cells; host or cells: SV40-immortalized skin fibroblasts of a β-galactosidase-deficient knockout mouse
T3 sequence (P16278 29-677 Y83H): T1 sequence (P16278 29-677 Y316C) with Y55H, C288Y
Excerpt: as §1, §2, §3

enzyme activity, Control ([1]; transferred gene Y316C, control substance 0.5 mM NB-DGJ)	enzyme activity, Control ([2]; transferred gene T82M, control substance 0.5 mM NB-DGJ)	enzyme activity, Control ([3]; transferred gene Y83H, control substance 0.5 mM NB-DGJ)	Structure (SMILES)	Relative ratio (×100%) ([1]; Y316C, substance 18 vs control)	enzyme activity ([1]; transferred gene Y316C, 0.2 μM, 4 days)	Relative ratio (×100%) ([2]; T82M, substance 18 vs control)	enzyme activity ([2]; transferred gene T82M, 0.2 μM, 4 days)	enzyme activity increased in comparison with the control ([3]; Y83H, 0.2 μM) [%]	Relative ratio (×100%) ([3]; Y83H, substance 18 vs control)	enzyme activity ([3]; transferred gene Y83H, 0.2 μM, 4 days)
0.23	0.67	8.89	CCCCN1C[C@H](O)[C@@H](O)[C@@H](O)[C@H]1CO [Control, N-(n-butyl)-deoxygalactonojirimycin, reference compound]							
			CCCCCCCCN[C@@H]1C=C(CO)[C@H](O)C(O)[C@@H]1O (stereo partly drawn) [Substance 18, N-octyl-5a-carba-α-L-arabino-hexo-5(5a)-enopyranosylamine]	3.44 ×100%	0.80	0.88 ×100%	0.59	≥ 150	2.27 ×100%	20.16
